# What was measured:
# OVCAR-5 = assay: NCI cytotoxicity screen, Ovarian Cancer panel; type: cell-based; settings: Homo sapiens, single dose 10 µM, negative = lethal, read-out: Percent growth inhibition
# Method: (§1) Cytotoxicity was performed at National Cancer Institute (NCI), Bethesda, USA as per their protocols.
# OVCAR-8 = assay: NCI cytotoxicity screen, Ovarian Cancer panel; type: cell-based; settings: Homo sapiens, single dose 10 µM, negative = lethal, read-out: Percent growth inhibition
# Method: as §1
# OVCAR-4 = assay: NCI cytotoxicity screen, Ovarian Cancer panel; type: cell-based; settings: Homo sapiens; OVCAR-4; single dose 10 µM; negative = lethal; read-out: Percent growth inhibition
# Method: as §1
# IGROV1 = assay: NCI cytotoxicity screen, Ovarian Cancer panel; type: cell-based; settings: Homo sapiens, IGROV-1, single dose 10 µM, negative = lethal, read-out: Percent growth inhibition
# Method: as §1
# NCI/ADR-RES = assay: NCI cytotoxicity screen, Ovarian Cancer panel; type: cell-based; settings: Homo sapiens, single dose 10 µM, negative = lethal, read-out: Percent growth inhibition
# Method: as §1
# SK-OV-3 = assay: NCI cytotoxicity screen, Ovarian Cancer panel; type: cell-based; settings: Homo sapiens, single dose 10 µM, negative = lethal, read-out: Percent growth inhibition
# Method: as §1
# COLO 205 = assay: NCI cytotoxicity screen, Colon Cancer panel; type: cell-based; settings: Homo sapiens, single dose 10 µM, negative = lethal, read-out: Percent growth inhibition
# Method: as §1
# HCT-15 = assay: NCI cytotoxicity screen, Colon Cancer panel; type: cell-based; settings: Homo sapiens, single dose 10 µM, negative = lethal, read-out: Percent growth inhibition
# Method: as §1
# SF-539 = assay: NCI cytotoxicity screen, CNS Cancer panel; type: cell-based; settings: Homo sapiens, single dose 10 µM, negative = lethal, read-out: Percent growth inhibition
# Method: as §1
# SNB-75 = assay: NCI cytotoxicity screen, CNS Cancer panel; type: cell-based; settings: Homo sapiens, single dose 10 µM, negative = lethal, read-out: Percent growth inhibition
# Method: as §1
# SNB-19 = assay: NCI cytotoxicity screen, CNS Cancer panel; type: cell-based; settings: Homo sapiens; SNB-19; single dose 10 µM; negative = lethal; read-out: Percent growth inhibition
# Method: as §1
# SF-295 = assay: NCI cytotoxicity screen, CNS Cancer panel; type: cell-based; settings: Homo sapiens, single dose 10 µM, negative = lethal, read-out: Percent growth inhibition
# Method: as §1
# SF-268 = assay: NCI cytotoxicity screen, CNS Cancer panel; type: cell-based; settings: Homo sapiens, single dose 10 µM, negative = lethal, read-out: Percent growth inhibition
# Method: as §1
# U251 = assay: NCI cytotoxicity screen, CNS Cancer panel; type: cell-based; settings: Homo sapiens, U-251; U251; single dose 10 µM; negative = lethal; read-out: Percent growth inhibition
# Method: as §1
# PC-3 = assay: NCI cytotoxicity screen, Prostate Cancer panel; type: cell-based, human; settings: Homo sapiens, single dose 10 µM, negative = lethal, read-out: Percent growth inhibition
# Method: as §1
# DU-145 = assay: NCI cytotoxicity screen, Prostate Cancer panel; type: cell-based, human; settings: Homo sapiens, single dose 10 µM, negative = lethal, read-out: Percent growth inhibition
# Method: as §1
# SN12C = assay: NCI cytotoxicity screen, Renal Cancer panel; type: cell-based; settings: Homo sapiens, single dose 10 µM, negative = lethal, read-out: Percent growth inhibition
# Method: as §1
# A498 = assay: NCI cytotoxicity screen, Renal Cancer panel; type: cell-based; settings: Homo sapiens, single dose 10 µM, negative = lethal, read-out: Percent growth inhibition
# Method: as §1
# ACHN = assay: NCI cytotoxicity screen, Renal Cancer panel; type: cell-based; settings: Homo sapiens, single dose 10 µM, negative = lethal, read-out: Percent growth inhibition
# Method: as §1
# CAKI-1 = assay: NCI cytotoxicity screen, Renal Cancer panel; type: cell-based; settings: Homo sapiens; CAKI-1; single dose 10 µM; negative = lethal; read-out: Percent growth inhibition
# Method: as §1
# RXF 393 = assay: NCI cytotoxicity screen, Renal Cancer panel; type: cell-based; settings: Homo sapiens, single dose 10 µM, negative = lethal, read-out: Percent growth inhibition
# Method: as §1
# UO-31 = assay: NCI cytotoxicity screen, Renal Cancer panel; type: cell-based; settings: Homo sapiens, single dose 10 µM, negative = lethal, read-out: Percent growth inhibition
# Method: as §1
# SK-MEL-2 = assay: NCI cytotoxicity screen, Melanoma panel; type: cell-based; settings: Homo sapiens, single dose 10 µM, negative = lethal, read-out: Percent growth inhibition
# Method: as §1
# SK-MEL-5 = assay: NCI cytotoxicity screen, Melanoma panel; type: cell-based; settings: Homo sapiens, single dose 10 µM, negative = lethal, read-out: Percent growth inhibition
# Method: as §1
# MALME-3M = assay: NCI cytotoxicity screen, Melanoma panel; type: cell-based; settings: Homo sapiens; MALME-3M; single dose 10 µM; negative = lethal; read-out: Percent growth inhibition
# Method: as §1
# SK-MEL-28 = assay: NCI cytotoxicity screen, Melanoma panel; type: cell-based; settings: Homo sapiens, single dose 10 µM, negative = lethal, read-out: Percent growth inhibition
# Method: as §1
# MDA-MB-435 = assay: NCI cytotoxicity screen, Melanoma panel; type: cell-based; settings: Homo sapiens, MDA-MB-435, read-out: Percent growth inhibition
# Method: as §1
# UACC-257 = assay: NCI cytotoxicity screen, Melanoma panel; type: cell-based; settings: Homo sapiens, single dose 10 µM, negative = lethal, read-out: Percent growth inhibition
# Method: as §1
# [1] = Experimental log P, shake-flask method; type: physicochemical; settings: n-octanol/phosphate buffer pH 7.4, read-out: Exp. Log P
# Outline: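 Shake-flask partitioning between n-octanol and phosphate buffer pH 7.4, shaken 50 min, then centrifuged 35 min at 2500 rpm. Buffer-phase absorbance at each compound's λmax measured before and after partitioning. P calculated from absorbance drop and phase volume ratio.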
# TK-10 = assay: NCI cytotoxicity screen, Renal Cancer panel; type: cell-based, human; settings: Homo sapiens, single dose 10 µM, negative = lethal, read-out: Percent growth inhibition
# Method: as §1
# 786-0 = assay: NCI cytotoxicity screen, Renal Cancer panel; type: cell-based, human; settings: Homo sapiens, single dose 10 µM, negative = lethal, read-out: Percent growth inhibition
# Method: as §1
# HOP-92 = assay: NCI cytotoxicity screen, Non-Small Cell Lung Cancer panel; type: cell-based; settings: Homo sapiens, single dose 10 µM, negative = lethal, read-out: Percent growth inhibition
# Method: as §1
# HOP-62 = assay: as above; type: cell-based; settings: Homo sapiens, single dose 10 µM, negative = lethal, read-out: Percent growth inhibition
# Method: as §1
# EXVX = assay: as above; type: cell-based; settings: Homo sapiens; EXVX; single dose 10 µM; negative = lethal; read-out: Percent growth inhibition
# Method: as §1
# A549/ATCC = assay: as above; type: cell-based; settings: Homo sapiens; A549/ATCC; single dose 10 µM; negative = lethal; read-out: Percent growth inhibition
# Method: as §1
# NCI-H460 = assay: as above; type: cell-based; settings: Homo sapiens, single dose 10 µM, negative = lethal, read-out: Percent growth inhibition
# Method: as §1
# OVCAR-3 = assay: NCI cytotoxicity screen, Ovarian Cancer panel; type: cell-based, human; settings: Homo sapiens; OVCAR-3; single dose 10 µM; negative = lethal; read-out: Percent growth inhibition
# Method: as §1
# LOX IMVI = assay: NCI cytotoxicity screen, Melanoma panel; type: cell-based, human; settings: Homo sapiens, single dose 10 µM, negative = lethal, read-out: Percent growth inhibition
# Method: as §1
# M14 = assay: NCI cytotoxicity screen, Melanoma panel; type: cell-based, human; settings: Homo sapiens, single dose 10 µM, negative = lethal, read-out: Percent growth inhibition
# Method: as §1
# UACC-62 = assay: NCI cytotoxicity screen, Melanoma panel; type: cell-based, human; settings: Homo sapiens, single dose 10 µM, negative = lethal, read-out: Percent growth inhibition
# Method: as §1
# KM12 = assay: NCI cytotoxicity screen, Colon Cancer panel; type: cell-based, human; settings: Homo sapiens, single dose 10 µM, negative = lethal, read-out: Percent growth inhibition
# Method: as §1
# SW-620 = assay: NCI cytotoxicity screen, Colon Cancer panel; type: cell-based, human; settings: Homo sapiens, single dose 10 µM, negative = lethal, read-out: Percent growth inhibition
# Method: as §1
# HCC-2998 = assay: NCI cytotoxicity screen, Colon Cancer panel; type: cell-based, human; settings: Homo sapiens; HCC-2998; single dose 10 µM; negative = lethal; read-out: Percent growth inhibition
# Method: as §1
structure (smiles),measurement,setting,value
"c1cn2cc(-c3ccsc3)nc(-c3ccc4c(c3)ncn4C3CCCCC3)c2n1 [Compound 14, 8-(1-cyclohexyl-1H-benzo[d]imidazol-5-yl)-6-(thiophen-3-yl)imidazo[1,2-a]pyrazine]",inhibition at 10 µM,OVCAR-5,< 1%
same,inhibition at 10 µM,OVCAR-8,6.38%
same,inhibition at 10 µM,OVCAR-4,< 1%
same,inhibition at 10 µM,IGROV1,19.1%
same,inhibition at 10 µM,NCI/ADR-RES,4.17%
same,inhibition at 10 µM,SK-OV-3,< 1%
same,inhibition at 10 µM,COLO 205,< 1%
same,inhibition at 10 µM,HCT-15,18.8%
same,inhibition at 10 µM,SF-539,2.82%
same,inhibition at 10 µM,SNB-75,< 1%
same,inhibition at 10 µM,SNB-19,3.96%
same,inhibition at 10 µM,SF-295,< 1%
same,inhibition at 10 µM,SF-268,5.01%
same,inhibition at 10 µM,U251,30.2%
same,inhibition at 10 µM,PC-3,17.9%
same,inhibition at 10 µM,DU-145,< 1%
same,inhibition at 10 µM,SN12C,6.33%
same,inhibition at 10 µM,A498,< 1%
same,inhibition at 10 µM,ACHN,4.32%
same,inhibition at 10 µM,CAKI-1,< 1%
same,inhibition at 10 µM,RXF 393,< 1%
same,inhibition at 10 µM,UO-31,23.1%
same,inhibition at 10 µM,SK-MEL-2,0.58%
same,inhibition at 10 µM,SK-MEL-5,24.8%
same,inhibition at 10 µM,MALME-3M,3.01%
same,inhibition at 10 µM,SK-MEL-28,< 1%
same,inhibition at 10 µM,MDA-MB-435,6%
same,inhibition at 10 µM,UACC-257,< 1%
same,logP,[1],1.63
same,inhibition at 10 µM,TK-10,< 1%
same,inhibition at 10 µM,786-0,< 1%
same,melting point,,185 to 188 °C
same,inhibition at 10 µM,HOP-92,25%
same,inhibition at 10 µM,HOP-62,7.41%
same,inhibition at 10 µM,EXVX,< 1%
same,inhibition at 10 µM,A549/ATCC,< 1%
same,inhibition at 10 µM,NCI-H460,7.12%
same,inhibition at 10 µM,OVCAR-3,< 1%
same,inhibition at 10 µM,LOX IMVI,14.5%
same,inhibition at 10 µM,M14,3.43%
same,inhibition at 10 µM,UACC-62,18.5%
same,inhibition at 10 µM,KM12,11.7%
same,inhibition at 10 µM,SW-620,< 1%
same,inhibition at 10 µM,HCC-2998,< 1%
